# In patent publication US20110301169A1, “Therapies for Treating Cancer Using Combinations of COX-2 Inhibitors and Antimetabolites” (priority 2007, published 2011):
# Key:
# [1] = Oral pharmacokinetics in monkeys; type: in vivo; settings: monkey, plasma, 5 mg/kg, read-out: elimination half life (t1/2) (converted)
# Description: (§1) Peak plasma concentrations were achieved between 1 and 3 hours after a dose of 5 mg/kg.
# [2] = Oral pharmacokinetics in rodents; type: in vivo, mice, rats
# Description: as §1
# clinical = settings: human, in vivo
# Description: as §1
# [3] = Oral pharmacokinetics in dogs; type: in vivo; settings: dog, plasma, 5 mg/kg, read-out: elimination half life (t1/2)
# Description: as §1
# [4] = human, in vivo
# [5] = tested on: human breast cancer cells (SK-BR-3); assay: SK-BR-3 model, tumor volume; type: in vivo, nude mice; settings: COX-2 inhibitor in the diet, trastuzumab intravenously
# Description: Mice are injected subcutaneously in the left paw (1×10^6 tumor cells suspended in 30% Matrigel) and tumor volume is evaluated using a phlethysmometer twice a week for 30-60 days. Implantation of human breast cancer cells (SK-BR-3) into nude mice produces tumors that will reach 0.6-2 ml between 30-50 days. […] The data is expressed as the mean+/−SEM. Student's and Mann-Whitney tests are used to assess differences between means using the InStat software package.
# The efficacy of both agents are determined by measuring tumor volume.
# B. In a second assay, mice injected with SK-BR-3 cancer cells are then treated with 5-FU on days 12 through 15. […] The efficacy of both agents are determined by measuring tumor volume.
# HER2 [ErbB2] = HER2 [ErbB2] (Homo sapiens, UniProt P04626); settings: cited from earlier work
# Chain of HER2 [ErbB2] (P04626 23-1255): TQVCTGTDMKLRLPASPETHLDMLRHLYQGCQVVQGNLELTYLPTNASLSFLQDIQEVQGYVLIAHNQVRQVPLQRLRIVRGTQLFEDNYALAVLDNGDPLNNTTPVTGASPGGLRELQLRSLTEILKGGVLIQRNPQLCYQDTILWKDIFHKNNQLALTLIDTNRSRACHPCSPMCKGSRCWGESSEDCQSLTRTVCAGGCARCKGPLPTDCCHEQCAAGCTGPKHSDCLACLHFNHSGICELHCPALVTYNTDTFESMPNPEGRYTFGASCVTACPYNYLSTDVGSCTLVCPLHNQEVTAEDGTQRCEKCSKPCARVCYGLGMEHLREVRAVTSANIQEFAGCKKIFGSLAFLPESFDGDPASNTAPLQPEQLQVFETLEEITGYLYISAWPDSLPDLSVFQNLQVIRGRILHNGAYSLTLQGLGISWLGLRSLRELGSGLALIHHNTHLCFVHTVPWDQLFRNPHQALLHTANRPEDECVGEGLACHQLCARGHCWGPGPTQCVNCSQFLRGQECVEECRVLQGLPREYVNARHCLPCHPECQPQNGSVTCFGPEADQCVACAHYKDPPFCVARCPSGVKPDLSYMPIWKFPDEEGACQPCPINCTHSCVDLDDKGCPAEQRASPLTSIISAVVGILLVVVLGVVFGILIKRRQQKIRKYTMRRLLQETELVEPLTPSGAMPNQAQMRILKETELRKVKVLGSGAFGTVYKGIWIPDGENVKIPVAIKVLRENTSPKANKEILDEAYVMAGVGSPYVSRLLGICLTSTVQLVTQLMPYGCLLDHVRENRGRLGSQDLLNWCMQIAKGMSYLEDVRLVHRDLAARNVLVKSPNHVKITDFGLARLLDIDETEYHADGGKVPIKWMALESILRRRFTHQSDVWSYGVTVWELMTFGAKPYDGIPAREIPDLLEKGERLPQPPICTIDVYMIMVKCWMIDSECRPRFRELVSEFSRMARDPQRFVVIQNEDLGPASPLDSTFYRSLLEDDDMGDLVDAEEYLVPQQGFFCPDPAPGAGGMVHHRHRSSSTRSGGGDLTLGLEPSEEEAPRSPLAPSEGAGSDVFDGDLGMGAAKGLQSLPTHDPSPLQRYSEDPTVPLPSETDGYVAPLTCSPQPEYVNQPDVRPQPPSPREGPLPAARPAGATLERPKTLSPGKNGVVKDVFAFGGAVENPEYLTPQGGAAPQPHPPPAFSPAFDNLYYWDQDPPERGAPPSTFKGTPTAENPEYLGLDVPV
# BT474 tumor = assay: BT474 model, tumor growth delay (Example 9); type: in vivo, Female SCID mice; settings: Groups 3, 4: 30 mg/kg, po, qd to end
# Description: Female SCID mice were injected subcutaneously in the flank (1 mm^3 BT474 tumor) and tumor volume was evaluated using a caliper twice a week for up to 90 days, longer for responders. Upon reaching an average tumor size of 100-200 mg the treatment was begun. […] The endpoint for the study was when tumor volume reached 0.75 gins or 90 days, which ever came first.
# [6] = tested on: MX1 (ER−, erbB2−) breast carcinoma; assay: MX1 human breast carcinoma xenograft, tumor growth delay (Example 11); type: in vivo, female athymic nude mice; settings: alone
# Description: The compound was administered orally on a continuous daily regimen in female athymic nude mice bearing established sc-implanted xenografts.
# [7] = third assay (C): 5-FU i.p. 50 mg/kg on days 14 through 17
smiles,measurement,setting,value
CCOc1ccc(-c2cc(C)cn2-c2ccc(S(N)(=O)=O)cc2)cc1,half-life,[1],~2 h
same,half-life,"[2]; mouse, rat, plasma, po, 5 mg/kg, rodents, read-out: elimination half life (t1/2)",4 to 5 h
same,Oral availability,"[2]; rodent, compared with dogs and monkeys",greatest in rodent
same,half-life,clinical,15 to 18 h
same,half-life,[3],4 to 5 h
same,gastric or duodenal toxicity,[4],no increase in gastric or duodenal toxicity compared to placebo
O=c1[nH]cc(F)c(=O)[nH]1 [5-FU],reduction in tumor volume,[5]; second assay (B): 5-FU i.p. 50 mg/kg on days 12-15,61%
same,reduction in tumor volume,[5]; [7],35%
"COCC(=O)NC/C=C/c1ccc2ncnc(Nc3ccc(Oc4ccc(C)nc4)c(C)c3)c2c1 [CP-724,714]",Ki,HER2 [ErbB2],7 nM
Cc1ccc(-c2cc(C(F)(F)F)nn2-c2ccc(S(N)(=O)=O)cc2)cc1 [celecoxib],% tumor growth delay,BT474 tumor,−28%
same,Median Total Time to Endpoint,BT474 tumor,27.5 days
same,Difference from control,BT474 tumor; difference in median time to endpoint,−10.7
Nc1nc2[nH]cc(CCc3ccc(C(=O)N[C@@H](CCC(=O)[O-])C(=O)[O-])cc3)c2c(=O)[nH]1.[Na+].[Na+] [pemetrexed],TGD (in words),[6],no TGD
Cc1onc(-c2ccccc2)c1-c1ccc(S(N)(=O)=O)cc1 [valdecoxib],reduction in tumor volume,[5]; [7],69%
